Source: patent US8772492B2, “Substituted isoquinoline and isoquinolinone derivatives” (Sanofi, priority 2006, dated 2014)

Each compound was assayed against T1, Active human recombinant ROCK II (N-terminal His6-tagged recombinant human ROCK-II residues 11-552) (Homo sapiens, UniProt O75116) (assay: Determination of Rho-kinase activity (Rho-kinase inhibition, Caliper peptide phosphorylation assay)). Settings: Fluorescein-AKRRRLSSLRA-COOH peptide substrate and ATP, 60 min incubation at 32° C., tested as the form (salt or free base) obtained in the examples, read-out: pIC50 (negative decadal logarithm of the IC50), Rho-kinase inhibition (converted).
T1 construct: recombinant human ROCK-II residues 11-552; His6 (N); purchased Upstate Ltd., Dundee, UK
T1 sequence (O75116 11-552): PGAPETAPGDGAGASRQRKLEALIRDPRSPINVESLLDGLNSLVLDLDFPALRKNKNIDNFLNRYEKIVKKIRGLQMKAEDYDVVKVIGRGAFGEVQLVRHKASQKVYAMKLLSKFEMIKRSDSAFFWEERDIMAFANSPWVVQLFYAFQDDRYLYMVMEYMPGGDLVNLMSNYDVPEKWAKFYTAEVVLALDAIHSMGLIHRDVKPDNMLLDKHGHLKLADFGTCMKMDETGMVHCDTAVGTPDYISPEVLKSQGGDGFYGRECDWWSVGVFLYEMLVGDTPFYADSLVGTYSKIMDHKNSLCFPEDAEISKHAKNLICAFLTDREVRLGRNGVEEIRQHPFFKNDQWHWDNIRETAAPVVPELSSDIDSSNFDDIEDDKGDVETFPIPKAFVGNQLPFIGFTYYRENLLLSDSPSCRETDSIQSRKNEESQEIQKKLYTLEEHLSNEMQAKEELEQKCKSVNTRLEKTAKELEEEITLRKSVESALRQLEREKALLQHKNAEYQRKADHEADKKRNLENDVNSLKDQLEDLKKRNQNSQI
Type: biochemical
Protocol: Determination of Rho-Kinase Activity
To measure Rho-kinase inhibition, IC50 values were determined according to the following protocol:
Active human recombinant ROCK II (N-terminal His6-tagged recombinant human ROCK-II residues 11-552) was purchased from Upstate Ltd., Dundee, UK. The peptide substrate, Fluorescein-AKRRRLSSLRA-COOH, was obtained from JPT Peptide Technologies, Berlin, Germany. Adenosine-5′-triphosphate (ATP), bovine serum albumine (BSA), dimethylsulphoxide (DMSO), 4-(2-Hydroxyethyl)piperazine-1-ethanesulfonic acid (Hepes), Brij-35 and dithiothreitol (DTT) were purchased from Sigma-Aldrich, Munich, Germany. Tris(hydroxymethyl)-aminomethane (Tris), magnesium chloride, NaOH, 1M HCl and EDTA were obtained from Merck Biosciences, Darmstadt, Germany. “Complete” protease inhibitor was from Roche Diagnostics, Mannheim, Germany.
Test compounds were diluted to the appropriate concentrations in buffer 1 (25 mM Tris-HCl, pH 7.4, 5 mM MgCl2, 2 mM DTT, 0.02% (w/v) BSA and 3% DMSO). The ROCK II enzyme was diluted to a concentration of 100 ng/ml in buffer 2 (25 mM Tris-HCl, pH 7.4, 5 mM MgCl2, 2 mM DTT and 0.02% (w/v) BSA). The peptide substrate and ATP were diluted to concentrations of 3 μM and 120 μM, respectively, in the buffer 2. Two μl of the compound solution were mixed with 2 μl of the diluted enzyme in a 384-well small volume microtiter plate (Greiner, Bio-One, Frickenhausen, Germany), and the kinase reaction was initiated by addition of 2 μl of the solution containing peptide substrate and ATP. After 60 min incubation at 32° C., the reaction was stopped by addition of 20 μl of a solution containing 100 mM Hepes-NaOH, pH 7.4, 0.015% (v/v) Brij-35, 45 mM EDTA and 0.227% chip coating reagent 1 (Caliper Lifescience Inc, Hopkinton, Mass.). Phosphorylation of the substrate peptide was then detected on a Caliper 3000 instrument essentially as described by Pommereau et al (J. Biomol. Screening 9(5), 409-416, 2004). Separation conditions were as follows: Pressure −1.3 psi, upstream voltage −1562 V, downstream voltage −500 V, sample sip time 200 ms. Positive controls (buffer 1 instead of compound) and negative controls (buffer 1 instead of compound and buffer 2 instead of ROCK II) were run in parallel on each plate.
The following products/compounds were tested in said assay by using the respective form (salt or free base) obtained as in the examples described above and the following activities were measured.

| IC50 [µM] | SMILES |
| --- | --- |
| ≤ 1 | COc1cccc(CNC(=O)[C@H]2CNC[C@@H]2Nc2ccc3cnccc3c2)c1 [Compound 48, (3S,4R)-4-(Isoquinolin-6-ylamino)-pyrrolidine-3-carboxylic acid 3-methoxy-benzylamide] |
| ≤ 1 | O=C(NCCc1ccccc1)[C@@H]1C[C@H](Nc2ccc3cnccc3c2)CN1 [Compound 45, (2S,4S)-4-(Isoquinolin-6-ylamino)-pyrrolidine-2-carboxylic acid phenethyl-amide] |
| ≤ 1 | Cc1ccccc1NC(=O)[C@H]1CNC[C@@H]1Nc1ccc2cnccc2c1 [Compound 50, (3S,4R)-4-(Isoquinolin-6-ylamino)-pyrrolidine-3-carboxylic acid o-tolylamide] |
| ≤ 1 | Cc1cc2c(=O)[nH]ccc2cc1O[C@H]1C[C@H]2CC[C@@H](C1)N2C [Compound 76, 7-Methyl-6-(8-methyl-8-aza-bicyclo[3.2.1]oct-3-yloxy)-2H-isoquinolin-1-one] |
| ≤ 1 | O=C(NCc1ccccc1Cl)[C@@H]1C[C@@H](Oc2ccc3cnccc3c2)CCN1 [Compound 22, (2S,4S)-4-(Isoquinolin-6-yloxy)-piperidine-2-carboxylic acid 2-chloro-benzylamide] |
| 1 to 10 | O=c1[nH]ccc2cc(OC3(c4ccccc4)CCN(Cc4ccccc4)CC3)c(Cl)cc12 [Compound 69, 6-(1-Benzyl-4-phenyl-piperidin-4-yloxy)-7-chloro-2H-isoquinolin-1-one] |
| 1 to 10 | O=C(NCCc1ccccc1)[C@@H]1C[C@@H](Oc2ccc3cnccc3c2)CCN1 [Compound 21, (2S,4S)-4-(Isoquinolin-6-yloxy)-piperidine-2-carboxylic acid phenethyl-amide] |

Continued, compound first:

| SMILES | IC50 [µM] |
| --- | --- |
| O=C(NCc1ccco1)[C@@H]1C[C@H](Nc2ccc3cnccc3c2)CN1 [Compound 41, (2S,4S)-4-(Isoquinolin-6-ylamino)-pyrrolidine-2-carboxylic acid (furan-2-ylmethyl)-amide] | 1 to 10 |
| C#CCNC(=O)[C@@H]1C[C@@H](Oc2ccc3cnccc3c2)CN1 [Compound 31, (2S,4R)-4-(Isoquinolin-6-yloxy)-pyrrolidine-2-carboxylic acid prop-2-ynylamide] | ≤ 1 |
| CN1[C@@H]2CC[C@H]1C[C@@H](Oc1cc3cc[nH]c(=O)c3cc1Cl)C2 [Compound 75, 7-Chloro-6-(8-methyl-8-aza-bicyclo[3.2.1]oct-3-yloxy)-2H-isoquinolin-1-one] | ≤ 1 |
| O=C(NCCO)[C@@H]1C[C@@H](Oc2ccc3cnccc3c2)CN1 [Compound 27, (2S,4R)-4-(Isoquinolin-6-yloxy)-pyrrolidine-2-carboxylic acid (2-hydroxy-ethyl)-amide] | 1 to 10 |
| COCCNC(=O)[C@H]1CNC[C@@H]1Nc1ccc2cnccc2c1 [Compound 49, (3S,4R)-4-(Isoquinolin-6-ylamino)-pyrrolidine-3-carboxylic acid (2-methoxy-ethyl)-amide] | 1 to 10 |
